Data taken from patent US20080200404A1, “Novel Antimalarial 9A-Carbamoyl-Aminoalkyl and 9A-Thiocarbamoyl-Aminoalkyl Azalides” (priority 2005, published 2008).
In brackets after ≈: the same amount, converted by molar mass. Read-outs that look alike come from different tables or passages of the source.

Legend:
Type in all cases: cell-based
[1] = test system: Plasmodium falciparum TM91C235; assay: In vitro antimalarial [3H]-hypoxanthine incorporation assay, TM91C235; settings: P. falciparum TM91C235 (multiple drug resistant isolate), 72 hours exposure; for IC50: Plasmodium falciparum
Procedure, shortened: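 Multidrug-resistant P. falciparum TM91C235 was run at 0.4% parasitemia and 1% hematocrit in folate/PABA-free RPMI-1640 with ALBUMAX, at 37° C under 5% CO2/5% O2. Compound was tested in duplicate at 25,000, 2,500 and 25 ng/ml, preexposed 48 h, then [3H]-hypoxanthine was added (72 h total). Counts are expressed relative to untreated parasite controls.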

[2] = test system: Plasmodium falciparum clone CDC/Sierra Leone I (D-6); assay: In vitro antimalarial [3H]-hypoxanthine incorporation serial dilution assay, D6; settings: P. falciparum D6, 72 hours exposure; for IC50: Plasmodium falciparum, D6, 72 h
Procedure, shortened: (§1)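 Blood-stage cultures in RPMI-1640 with 6% A+ erythrocytes and human plasma or ALBUMAX, 37° C under 5% CO2/5% O2. Compounds in two-fold dilutions over 11 concentrations; [3H]-hypoxanthine incorporation after 72 h total incubation, CPM normalised to untreated parasite controls; IC50 by non-linear logistic fit.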

[3] = test system: Plasmodium falciparum clone CDC/Indochina III (W-2); assay: In vitro antimalarial [3H]-hypoxanthine incorporation serial dilution assay, W2; settings: P. falciparum W2, 72 hours exposure; for IC50: Plasmodium falciparum
Procedure, shortened: as §1

[4] = compared with azithromycin, read-out: IC50 D6 (class symbol)

CC[C@H]1OC(=O)[C@H](C)[C@@H](O[C@H]2C[C@@](C)(OC)[C@@H](O)[C@H](C)O2)[C@H](C)[C@@H](O[C@@H]2O[C@H](C)C[C@H](N(C)C)[C@H]2O)[C@](C)(O)C[C@@H](C)CN(CCCNC(=S)NCC(C)C)[C@H](C)[C@@H](O)[C@]1(C)O.O=CO [Example 149]
IC50 [1]: 0.414 µg/mL
IC50 ([2]; read-out: IC50 D6): 0.657 µg/mL
IC50 [3]: 0.472 µg/mL

CC[C@H]1OC(=O)[C@H](C)[C@@H](O[C@H]2C[C@@](C)(OC)[C@@H](O)[C@H](C)O2)[C@H](C)[C@@H](O[C@@H]2O[C@H](C)C[C@H](N(C)C)[C@H]2O)[C@](C)(O)C[C@@H](C)CN(CCCNC(=S)Nc2ccc(-n3cccn3)cc2)[C@H](C)[C@@H](O)[C@]1(C)O.O=CO [Example 140]
IC50 [1]: 0.105 µg/mL
IC50 ([2]; read-out: IC50 D6): 0.166 µg/mL
IC50 [3]: 0.114 µg/mL

CC[C@H]1OC(=O)[C@H](C)[C@@H](O[C@H]2C[C@@](C)(OC)[C@@H](O)[C@H](C)O2)[C@H](C)[C@@H](O[C@@H]2O[C@H](C)C[C@H](N(C)C)[C@H]2O)[C@](C)(O)C[C@@H](C)CN(CCCNC(=S)Nc2cc(-c3ccccc3)ccc2OC)[C@H](C)[C@@H](O)[C@]1(C)O [Example 127]
IC50 [1]: 0.0571 µg/mL (≈ 0.0553 µM)
IC50 ([2]; read-out: IC50 D6): 0.06 µg/mL (≈ 0.0581 µM)
IC50 [3]: 0.117 µg/mL (≈ 0.114 µM)

CC[C@H]1OC(=O)[C@H](C)[C@@H](O[C@H]2C[C@@](C)(OC)[C@@H](O)[C@H](C)O2)[C@H](C)[C@@H](O[C@@H]2O[C@H](C)C[C@H](N(C)C)[C@H]2O)[C@](C)(O)C[C@@H](C)CN(CCCNC(=S)Nc2ccccc2F)[C@H](C)[C@@H](O)[C@]1(C)O.O=CO [Example 136]
IC50 [1]: 0.121 µg/mL
IC50 ([2]; read-out: IC50 D6): 0.978 µg/mL
IC50 [3]: 0.396 µg/mL

CC[C@H]1OC(=O)[C@H](C)[C@@H](O[C@H]2C[C@@](C)(OC)[C@@H](O)[C@H](C)O2)[C@H](C)[C@@H](O[C@@H]2O[C@H](C)C[C@H](N(C)C)[C@H]2O)[C@](C)(O)C[C@@H](C)CN(CCCNC(=O)Nc2ccc3c(c2)CCC3)[C@H](C)[C@@H](O)[C@]1(C)O [Example 64]
IC50 [1]: 0.0915 µg/mL (≈ 0.0962 µM)
IC50 ([2]; read-out: IC50 D6): 0.253 µg/mL (≈ 0.266 µM)
IC50 [3]: 0.07 µg/mL (≈ 0.0736 µM)

CCNC(=O)NCCN1C[C@H](C)C[C@@](C)(O)[C@H](O[C@@H]2O[C@H](C)C[C@H](N(C)C)[C@H]2O)[C@@H](C)[C@H](O[C@H]2C[C@@](C)(OC)[C@@H](O)[C@H](C)O2)[C@@H](C)C(=O)O[C@H](CC)[C@@](C)(O)[C@H](O)[C@H]1C [Example 158, 9-Deoxo-9-dihydro-9a-[N′-(ethyl)carbamoyl-β-amino-ethyl]-9a-aza-9a-homoerythromycin A]
IC50 [1]: 0.103 µg/mL (≈ 0.121 µM)
IC50 ([2]; read-out: IC50 D6): 0.167 µg/mL (≈ 0.197 µM)
IC50 [3]: 0.405 µg/mL (≈ 0.476 µM)

CC[C@H]1OC(=O)[C@H](C)[C@@H](O[C@H]2C[C@@](C)(OC)[C@@H](O)[C@H](C)O2)[C@H](C)[C@@H](O[C@@H]2O[C@H](C)C[C@H](N(C)C)[C@H]2O)[C@](C)(O)C[C@@H](C)CN(CCCNC(=S)Nc2sc3c(c2C(=O)OC)CCCC3)[C@H](C)[C@@H](O)[C@]1(C)O [Example 148]
IC50 [1]: 0.426 µg/mL (≈ 0.407 µM)
IC50 ([2]; read-out: IC50 D6): 0.862 µg/mL (≈ 0.825 µM)
IC50 [3]: 0.24 µg/mL (≈ 0.229 µM)

CC[C@H]1OC(=O)[C@H](C)[C@@H](O[C@H]2C[C@@](C)(OC)[C@@H](O)[C@H](C)O2)[C@H](C)[C@@H](O[C@@H]2O[C@H](C)C[C@H](N(C)C)[C@H]2O)[C@](C)(O)C[C@@H](C)CN(CCCNC(=S)NC23CC4CC(CC(C4)C2)C3)[C@H](C)[C@@H](O)[C@]1(C)O [Example 130]
IC50 [1]: 0.15 µg/mL (≈ 0.152 µM)
IC50 ([2]; read-out: IC50 D6): 0.545 µg/mL (≈ 0.553 µM)
IC50 [3]: 0.207 µg/mL (≈ 0.21 µM)

CC[C@H]1OC(=O)[C@H](C)[C@@H](O[C@H]2C[C@@](C)(OC)[C@@H](O)[C@H](C)O2)[C@H](C)[C@@H](O[C@@H]2O[C@H](C)C[C@H](N(C)C)[C@H]2O)[C@](C)(O)C[C@@H](C)CN(CCCNC(=O)NC2CCCC2)[C@H](C)[C@@H](O)[C@]1(C)O [Example 56]
IC50 [1]: 0.556 µg/mL (≈ 0.616 µM)
IC50 [2, 4]: > 0.797 µg/mL
IC50 [3]: 0.251 µg/mL (≈ 0.277 µM)

CCC1OC(=O)C(C)C(OC2CC(C)(OC)C(O)C(C)O2)C(C)C(OC2OC(C)CC(N(C)C)C2O)C(C)(O)CC(C)CN(CCNC(=O)NCc2ccccc2)C(C)C(O)C1(C)O (stereo not drawn) [Example 3, 9-Deoxo-9-dihydro-9a-(N′-benzylcarbamoyl-β-aminoethyl)-9a-aza-9a-homoerythromycin A]
IC50 TM91C235 [1]: 0.1547 µg/mL (≈ 0.17 µM)
IC50 D6 [2]: 0.292 µg/mL (≈ 0.32 µM)
IC50 W2 [3]: 0.2617 µg/mL (≈ 0.287 µM)

CCc1ccccc1NC(=S)NCCCN1C[C@H](C)C[C@@](C)(O)[C@H](O[C@@H]2O[C@H](C)C[C@H](N(C)C)[C@H]2O)[C@@H](C)[C@H](O[C@H]2C[C@@](C)(OC)[C@@H](O)[C@H](C)O2)[C@@H](C)C(=O)O[C@H](CC)[C@@](C)(O)[C@H](O)[C@H]1C [Example 101]
IC50 [1]: 0.24 µg/mL (≈ 0.252 µM)
IC50 ([2]; read-out: IC50 D6): 0.425 µg/mL (≈ 0.445 µM)
IC50 [3]: 0.0919 µg/mL (≈ 0.0962 µM)

CC[C@H]1OC(=O)[C@H](C)[C@@H](O[C@H]2C[C@@](C)(OC)[C@@H](O)[C@H](C)O2)[C@H](C)[C@@H](O[C@@H]2O[C@H](C)C[C@H](N(C)C)[C@H]2O)[C@](C)(O)C[C@@H](C)CN(CCCNC(=O)Nc2ccc(C#N)cc2)[C@H](C)[C@@H](O)[C@]1(C)O [Example 59]
IC50 [1]: 0.193 µg/mL (≈ 0.206 µM)
IC50 ([2]; read-out: IC50 D6): 0.362 µg/mL (≈ 0.386 µM)
IC50 [3]: 0.092 µg/mL (≈ 0.0983 µM)

CC[C@H]1OC(=O)[C@H](C)[C@@H](O[C@H]2C[C@@](C)(OC)[C@@H](O)[C@H](C)O2)[C@H](C)[C@@H](O[C@@H]2O[C@H](C)C[C@H](N(C)C)[C@H]2O)[C@](C)(O)C[C@@H](C)CN(CCCNC(=S)Nc2ccc(Cl)c(C(F)(F)F)c2)[C@H](C)[C@@H](O)[C@]1(C)O [Example 124]
IC50 [1]: 0.0122 µg/mL (≈ 0.0118 µM)
IC50 ([2]; read-out: IC50 D6): 0.0559 µg/mL (≈ 0.0543 µM)
IC50 [3]: 0.0575 µg/mL (≈ 0.0558 µM)

CC[C@H]1OC(=O)[C@H](C)[C@@H](O[C@H]2C[C@@](C)(OC)[C@@H](O)[C@H](C)O2)[C@H](C)[C@@H](O[C@@H]2O[C@H](C)C[C@H](N(C)C)[C@H]2O)[C@](C)(O)C[C@@H](C)CN(CCCNC(=O)Nc2cccc(F)c2)[C@H](C)[C@@H](O)[C@]1(C)O.O=CO [Example 81]
IC50 [1]: 0.16 µg/mL
IC50 ([2]; read-out: IC50 D6): 0.565 µg/mL
IC50 [3]: 0.278 µg/mL

CC[C@H]1OC(=O)[C@H](C)[C@@H](O[C@H]2C[C@@](C)(OC)[C@@H](O)[C@H](C)O2)[C@H](C)[C@@H](O[C@@H]2O[C@H](C)C[C@H](N(C)C)[C@H]2O)[C@](C)(O)C[C@@H](C)CN(CCCNC(=S)NCCCSC)[C@H](C)[C@@H](O)[C@]1(C)O [Example 109]
IC50 [1]: 0.332 µg/mL (≈ 0.354 µM)
IC50 ([2]; read-out: IC50 D6): 0.843 µg/mL (≈ 0.898 µM)
IC50 [3]: 0.19 µg/mL (≈ 0.202 µM)

CC[C@H]1OC(=O)[C@H](C)[C@@H](O[C@H]2C[C@@](C)(OC)[C@@H](O)[C@H](C)O2)[C@H](C)[C@@H](O[C@@H]2O[C@H](C)C[C@H](N(C)C)[C@H]2O)[C@](C)(O)C[C@@H](C)CN(CCCNC(=S)Nc2ccc(Oc3ccccc3)nc2)[C@H](C)[C@@H](O)[C@]1(C)O.O=CO [Example 146]
IC50 [1]: 0.142 µg/mL
IC50 ([2]; read-out: IC50 D6): 0.23 µg/mL
IC50 [3]: 0.117 µg/mL

CC[C@H]1OC(=O)[C@H](C)[C@@H](O[C@H]2C[C@@](C)(OC)[C@@H](O)[C@H](C)O2)[C@H](C)[C@@H](O[C@@H]2O[C@H](C)C[C@H](N(C)C)[C@H]2O)[C@](C)(O)C[C@@H](C)CN(CCCN(CCC(N)=O)C(=O)Nc2ccc(Cl)cc2Cl)[C@H](C)[C@@H](O)[C@]1(C)O [Example 169, 9-Deoxo-9-dihydro-9a-[N′-(β-amidoethyl)-N′-(2,4-dichlorophenyl)carbamoyl-γ-aminopropyl]-9a-aza-9a-homoerythromycin A]
IC50 TM91C235 [1]: 0.1475 µg/mL (≈ 0.14 µM)
IC50 D6 [2]: 0.2266 µg/mL (≈ 0.216 µM)
IC50 W2 [3]: 0.188 µg/mL (≈ 0.179 µM)

CC[C@H]1OC(=O)[C@H](C)[C@@H](O[C@H]2C[C@@](C)(OC)[C@@H](O)[C@H](C)O2)[C@H](C)[C@@H](O[C@@H]2O[C@H](C)C[C@H](N(C)C)[C@H]2O)[C@](C)(O)C[C@@H](C)CN(CCCNC(=S)Nc2ccc(N(CC)CC)cc2)[C@H](C)[C@@H](O)[C@]1(C)O.O=CO [Example 121]
IC50 [1]: 0.312 µg/mL
IC50 ([2]; read-out: IC50 D6): 0.799 µg/mL
IC50 [3]: 0.714 µg/mL

CCC(C)NC(=O)NCCCN1C[C@H](C)C[C@@](C)(O)[C@H](O[C@@H]2O[C@H](C)C[C@H](N(C)C)[C@H]2O)[C@@H](C)[C@H](O[C@H]2C[C@@](C)(OC)[C@@H](O)[C@H](C)O2)[C@@H](C)C(=O)O[C@H](CC)[C@@](C)(O)[C@H](O)[C@H]1C (stereo partly drawn) [Example 55]
IC50 [1]: 1.05 µg/mL (≈ 1.18 µM)
IC50 [2, 4]: > 0.797 µg/mL
IC50 [3]: 0.435 µg/mL (≈ 0.489 µM)

CC[C@H]1OC(=O)[C@H](C)[C@@H](O[C@H]2C[C@@](C)(OC)[C@@H](O)[C@H](C)O2)[C@H](C)[C@@H](O[C@@H]2O[C@H](C)C[C@H](N(C)C)[C@H]2O)[C@](C)(O)C[C@@H](C)CN(CCCNC(=O)NC(C)(C)C)[C@H](C)[C@@H](O)[C@]1(C)O [Example 53]
IC50 [1]: 0.713 µg/mL (≈ 0.8 µM)
IC50 [2, 4]: > 0.797 µg/mL
IC50 [3]: 0.366 µg/mL (≈ 0.41 µM)
